Read-outs that look alike come from different tables or passages of the source.
Legend:
cancer cell lines = assay: Anti-cancer screening of extracts, fractions and compounds (CIMA assay, bioassay-guided fractionation); format: cell-based, human; conditions: in vitro
Method: Lead crude extracts were fractionated into five fractions by C-18 SPE column separation using 15 ml each of 5% methanol (fraction 1), 25% methanol (fraction 2), 50% methanol (fraction 3), 100% methanol (fraction 4) and […] (fraction 5). Extracts were fractionated and the resulting fractions were evaluated using CIMA assay. Bio-assay guided fractionation provided detailed information regarding the compound(s) responsible for specific bioactivity.

[1] = system: SKOV3 (ovarian adenocarcinoma); assay: CIMA assay, cell viability, SKOV3; conditions: for viability at 1 µg/mL / viability at 10 µg/mL / viability at 50 µg/mL / viability at 100 µg/mL: Homo sapiens, SK-OV-3, read-out: Average cell viability, SKOV; for Fold change in viability AVG: SKOV
Method: (§1) Stock solutions of the extracts were prepared in dimethylsulfoxide (DMSO) at 10 mg/mL and stored in 200 μl aliquots at −20° C. until analysis. This preparation ensured that the DMSO delivered to cells in culture never exceeded 1%.
(§2) Prepared extracts were assessed following chronic exposure conditions in which cells were seeded at 2×10^3 cells/well (96 well-plate) and incubated with test compounds for 72 h. Each compound was evaluated over a range of concentrations (0, 10, 25, 50 or 100 μg/ml). Cell proliferation was initially assessed using a standard colorimetric indicator of metabolic activity (CIMA) assay. In this assay, tetrazole reduction was evaluated as a measure of metabolic function that evaluates mitochondrial activity to determine the extent of cell proliferation within a culture. This assay is based on the reduction of yellow tetrazolium salt to purple formazan by mitochondrial reductases enzyme in viable cells, resulting in a color changed that confers a change in absorbance.

MDA-MB [2] = conditions: MDA-MB
PC3 = assay: CIMA assay, cell viability, PC3; conditions: for viability at 1 µg/mL / viability at 10 µg/mL / viability at 50 µg/mL / viability at 100 µg/mL: Homo sapiens, PC-3, read-out: Average cell viability, PC3; for Fold change in viability AVG: PC3
[3] = system: CCD1079SK (fibroblast, noncancerous but proliferating); assay: CIMA assay, cell viability, CCD1079SK; conditions: CCD
Method: as §1, §2

A549 (lung carcinoma) = assay: CIMA assay (colorimetric indicator of metabolic activity), cell viability, A549; conditions: for Fold change in viability AVG: A549; for viability at 1 µg/mL / viability at 10 µg/mL / viability at 50 µg/mL / viability at 100 µg/mL: Homo sapiens, A549, read-out: Average cell viability, A549
[4] = system: THP-1 (acute monocytic leukemia); assay: CIMA assay, cell viability, THP-1; conditions: for viability at 1 µg/mL / viability at 10 µg/mL / viability at 50 µg/mL / viability at 100 µg/mL: Homo sapiens, THP-1, read-out: Average cell viability, THP-1; for Fold change in viability AVG: THP-1
Method: as §1, §2

in vitro = conditions: human, Average cell viability
Method: as §1, §2

MDA-MB [5] = assay: cells; conditions: Homo sapiens, read-out: Average cell viability, MDA-MB; for viability at 1 µg/mL: 1 ug/mL; for viability at 10 µg/mL: 10 ug/mL; for viability at 50 µg/mL: 50 ug/mL; for viability at 100 µg/mL: 100 ug/mL
[6] = system: U373 (glioblastoma-astrocytoma); assay: CIMA assay, cell viability, U373; conditions: for viability at 1 µg/mL / viability at 10 µg/mL / viability at 50 µg/mL / viability at 100 µg/mL: Homo sapiens, U373 MG, read-out: Average cell viability, U373; for Fold change in viability AVG: U373
Method: as §1, §2

## CO[C@H]1CC(C)(C)C(/C=C/C(C)=C/C=C/C(C)=C/C=C/C=C(C)/C=C/C=C(C)/C=C/[C@H]2C(C)=C[C@@H](O)CC2(C)C)=C(C)C1=O [C]
Cancer cell lines
  anti-cancer activity (in words): anti-cancer activity

## CC/C=C\C/C=C\C/C=C\CCCCCCCC(=O)O [Compound 19, α-linolenic acid]
[1]; 1 ug/mL
  viability at 1 µg/mL: 117%
  Fold change in viability AVG: 1.26
[1]; 10 ug/mL
  viability at 10 µg/mL: 111%
  Fold change in viability AVG: 1.20
[1]; 50 ug/mL
  viability at 50 µg/mL: 101%
  Fold change in viability AVG: 1.09
[1]; 100 ug/mL
  viability at 100 µg/mL: 83%
  Fold change in viability AVG: 0.90
MDA-MB [2]; sample at 1 ug/mL
  MDA-MB AVG: 1.17
MDA-MB [2]; sample at 10 ug/mL
  MDA-MB AVG: 1.18
MDA-MB [2]; sample at 50 ug/mL
  MDA-MB AVG: 0.88
MDA-MB [2]; sample at 100 ug/mL
  MDA-MB AVG: 0.26
MDA-MB [2]; 1 ug/mL
  Fold change in viability AVG: 1.17
MDA-MB [2]; 10 ug/mL
  Fold change in viability AVG: 1.18
MDA-MB [2]; 50 ug/mL
  Fold change in viability AVG: 0.88
MDA-MB [2]; 100 ug/mL
  Fold change in viability AVG: 0.26
PC3; 1 ug/mL
  viability at 1 µg/mL: 105%
  Fold change in viability AVG: 1.09
PC3; 10 ug/mL
  viability at 10 µg/mL: 103%
  Fold change in viability AVG: 1.07
PC3; 50 ug/mL
  viability at 50 µg/mL: 88%
  Fold change in viability AVG: 0.91
PC3; 100 ug/mL
  viability at 100 µg/mL: 11%
  Fold change in viability AVG: 0.12
PC3; PC3, sample at 1 ug/mL
  PC3 AVG: 1.09
PC3; PC3, sample at 10 ug/mL
  PC3 AVG: 1.07
PC3; PC3, sample at 50 ug/mL
  PC3 AVG: 0.91
PC3; PC3, sample at 100 ug/mL
  PC3 AVG: 0.12
[3]; 1 ug/mL
  Fold change in viability AVG: 1.20
[3]; 10 ug/mL
  Fold change in viability AVG: 1.16
[3]; 50 ug/mL
  Fold change in viability AVG: 0.85
[3]; 100 ug/mL
  Fold change in viability AVG: 0.23
A549 (lung carcinoma); A549, sample at 1 ug/mL
  A549 AVG: 1.16
A549 (lung carcinoma); A549, sample at 10 ug/mL
  A549 AVG: 1.16
A549 (lung carcinoma); A549, sample at 50 ug/mL
  A549 AVG: 1.02
A549 (lung carcinoma); A549, sample at 100 ug/mL
  A549 AVG: 0.67
A549 (lung carcinoma); 1 ug/mL
  Fold change in viability AVG: 1.16
  viability at 1 µg/mL: 99%
A549 (lung carcinoma); 10 ug/mL
  Fold change in viability AVG: 1.16
  viability at 10 µg/mL: 100%
A549 (lung carcinoma); 50 ug/mL
  Fold change in viability AVG: 1.02
  viability at 50 µg/mL: 88%
A549 (lung carcinoma); 100 ug/mL
  Fold change in viability AVG: 0.67
  viability at 100 µg/mL: 57%
[4]; 1 ug/mL
  viability at 1 µg/mL: 102%
  Fold change in viability AVG: 1.16
[4]; 10 ug/mL
  viability at 10 µg/mL: 99%
  Fold change in viability AVG: 1.12
[4]; 50 ug/mL
  viability at 50 µg/mL: 72%
  Fold change in viability AVG: 0.82
[4]; 100 ug/mL
  viability at 100 µg/mL: 31%
  Fold change in viability AVG: 0.35
[4]; THP-1, sample at 1 ug/mL
  THP-1 AVG: 1.16
[4]; THP-1, sample at 10 ug/mL
  THP-1 AVG: 1.12
[4]; THP-1, sample at 50 ug/mL
  THP-1 AVG: 0.82
[4]; THP-1, sample at 100 ug/mL
  THP-1 AVG: 0.35
In vitro
  viability at 72 h, 1 ug/mL: 109%
  viability at 72 h, 10 ug/mL: 105%
  viability at 72 h, 50 ug/mL: 77%
  viability at 72 h, 100 ug/mL: 21%
MDA-MB [5]
  viability at 1 µg/mL: 108%
  viability at 10 µg/mL: 108%
  viability at 50 µg/mL: 81%
  viability at 100 µg/mL: 24%
[6]; 1 ug/mL
  viability at 1 µg/mL: 116%
  Fold change in viability AVG: 1.18
[6]; 10 ug/mL
  viability at 10 µg/mL: 108%
  Fold change in viability AVG: 1.10
[6]; 50 ug/mL
  viability at 50 µg/mL: 57%
  Fold change in viability AVG: 0.58
[6]; 100 ug/mL
  viability at 100 µg/mL: 10%
  Fold change in viability AVG: 0.10
[6]; U373, sample at 1 ug/mL
  U373 AVG: 1.18
[6]; U373, sample at 10 ug/mL
  U373 AVG: 1.10
[6]; U373, sample at 50 ug/mL
  U373 AVG: 0.58
[6]; U373, sample at 100 ug/mL
  U373 AVG: 0.10

## CCCCC/C=C\C/C=C\CCCCCCCC(=O)O [Compound 20, linoleic acid]
[1]; 1 ug/mL
  viability at 1 µg/mL: 85%
  Fold change in viability AVG: 0.91
[1]; 10 ug/mL
  viability at 10 µg/mL: 88%
  Fold change in viability AVG: 0.95
[1]; 50 ug/mL
  viability at 50 µg/mL: 67%
  Fold change in viability AVG: 0.73
[1]; 100 ug/mL
  viability at 100 µg/mL: 26%
  Fold change in viability AVG: 0.28
MDA-MB [2]; sample at 1 ug/mL
  MDA-MB AVG: 1.09
MDA-MB [2]; sample at 10 ug/mL
  MDA-MB AVG: 1.04
MDA-MB [2]; sample at 50 ug/mL
  MDA-MB AVG: 0.19
MDA-MB [2]; sample at 100 ug/mL
  MDA-MB AVG: 0.16
MDA-MB [2]; 1 ug/mL
  Fold change in viability AVG: 1.09
MDA-MB [2]; 10 ug/mL
  Fold change in viability AVG: 1.04
MDA-MB [2]; 50 ug/mL
  Fold change in viability AVG: 0.19
MDA-MB [2]; 100 ug/mL
  Fold change in viability AVG: 0.16
PC3; 1 ug/mL
  viability at 1 µg/mL: 91%
  Fold change in viability AVG: 0.94
PC3; 10 ug/mL
  viability at 10 µg/mL: 97%
  Fold change in viability AVG: 1.00
PC3; 50 ug/mL
  viability at 50 µg/mL: 11%
  Fold change in viability AVG: 0.12
PC3; 100 ug/mL
  viability at 100 µg/mL: 6%
  Fold change in viability AVG: 0.06
PC3; PC3, sample at 1 ug/mL
  PC3 AVG: 0.94
PC3; PC3, sample at 10 ug/mL
  PC3 AVG: 1.00
PC3; PC3, sample at 50 ug/mL
  PC3 AVG: 0.12
PC3; PC3, sample at 100 ug/mL
  PC3 AVG: 0.06
[3]; 1 ug/mL
  Fold change in viability AVG: 1.02
[3]; 10 ug/mL
  Fold change in viability AVG: 1.07
[3]; 50 ug/mL
  Fold change in viability AVG: 0.15
[3]; 100 ug/mL
  Fold change in viability AVG: 0.06
A549 (lung carcinoma); A549, sample at 1 ug/mL
  A549 AVG: 1.11
A549 (lung carcinoma); A549, sample at 10 ug/mL
  A549 AVG: 1.12
A549 (lung carcinoma); A549, sample at 50 ug/mL
  A549 AVG: 0.66
A549 (lung carcinoma); A549, sample at 100 ug/mL
  A549 AVG: 0.13
A549 (lung carcinoma); 1 ug/mL
  Fold change in viability AVG: 1.11
  viability at 1 µg/mL: 95%
A549 (lung carcinoma); 10 ug/mL
  Fold change in viability AVG: 1.12
  viability at 10 µg/mL: 96%
A549 (lung carcinoma); 50 ug/mL
  Fold change in viability AVG: 0.66
  viability at 50 µg/mL: 56%
A549 (lung carcinoma); 100 ug/mL
  Fold change in viability AVG: 0.13
  viability at 100 µg/mL: 11%
[4]; 1 ug/mL
  viability at 1 µg/mL: 91%
  Fold change in viability AVG: 1.04
[4]; 10 ug/mL
  viability at 10 µg/mL: 91%
  Fold change in viability AVG: 1.03
[4]; 50 ug/mL
  viability at 50 µg/mL: 21%
  Fold change in viability AVG: 0.24
[4]; 100 ug/mL
  viability at 100 µg/mL: 17%
  Fold change in viability AVG: 0.19
[4]; THP-1, sample at 1 ug/mL
  THP-1 AVG: 1.04
[4]; THP-1, sample at 10 ug/mL
  THP-1 AVG: 1.03
[4]; THP-1, sample at 50 ug/mL
  THP-1 AVG: 0.24
[4]; THP-1, sample at 100 ug/mL
  THP-1 AVG: 0.19
In vitro
  viability at 72 h, 1 ug/mL: 93%
  viability at 72 h, 10 ug/mL: 97%
  viability at 72 h, 50 ug/mL: 13%
  viability at 72 h, 100 ug/mL: 6%
MDA-MB [5]
  viability at 1 µg/mL: 100%
  viability at 10 µg/mL: 95%
  viability at 50 µg/mL: 17%
  viability at 100 µg/mL: 15%
[6]; 1 ug/mL
  viability at 1 µg/mL: 87%
  Fold change in viability AVG: 0.89
[6]; 10 ug/mL
  viability at 10 µg/mL: 89%
  Fold change in viability AVG: 0.90
[6]; 50 ug/mL
  viability at 50 µg/mL: 7%
  Fold change in viability AVG: 0.07
[6]; 100 ug/mL
  viability at 100 µg/mL: 5%
  Fold change in viability AVG: 0.05
[6]; U373, sample at 1 ug/mL
  U373 AVG: 0.89
[6]; U373, sample at 10 ug/mL
  U373 AVG: 0.90
[6]; U373, sample at 50 ug/mL
  U373 AVG: 0.07
[6]; U373, sample at 100 ug/mL
  U373 AVG: 0.05

## CO[C@H]1CC(C)(C)C(/C=C/C(C)=C/C=C/C(C)=C/C=C/C=C(C)/C=C/C=C(C)/C=C/C2=C(C)C[C@@H](O)CC2(C)C)=C(C)C1=O [D]
Cancer cell lines
  anti-cancer activity (in words): anti-cancer activity

Source: patent publication US11292807B2 (OCEANS LTD., priority 2015, dated 2022)
